Among the data in patent US8178699B2, “Modulators of CCR9 receptor and methods of use thereof” (Pfizer Inc., priority 2008, dated 2012) are IC50 values, retold here.

Molecules are shown by their SMILES. Structures can show the parent of a compound that is named as a salt. Some results are limits rather than exact numbers.

For the assay, the target named is T1, human CCR9 receptor (Homo sapiens, UniProt P51686).
T1 construct: expressed in transfected cells
T1 sequence (P51686 1-369): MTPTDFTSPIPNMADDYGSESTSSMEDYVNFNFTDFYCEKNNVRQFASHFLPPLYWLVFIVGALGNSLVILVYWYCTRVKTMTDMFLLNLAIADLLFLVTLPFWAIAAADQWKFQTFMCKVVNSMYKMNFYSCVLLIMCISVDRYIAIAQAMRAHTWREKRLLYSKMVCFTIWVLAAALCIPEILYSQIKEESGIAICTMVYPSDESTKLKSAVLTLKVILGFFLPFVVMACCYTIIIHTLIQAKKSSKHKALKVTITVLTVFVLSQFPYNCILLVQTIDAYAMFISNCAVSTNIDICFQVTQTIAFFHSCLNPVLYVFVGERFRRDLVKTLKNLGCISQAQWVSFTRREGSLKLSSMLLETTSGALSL
Briefly: CCR9 FLIPR/FlexStation Assay (inhibition of TECK induced calcium mobilization). It counts as cell-based. Conditions: CCR9 antagonist activity; TECK induced calcium mobilization in CCR9-Flp-CHO cells stably over expressing human CCR9; rhTECK at EC70; read-out: Binding IC50. From the text:
Exemplary methods are described in US Publication Nos. US2004/0180892 and US2005/0049286, which are incorporated herein by reference. An exemplary assay for determining CCR9 antagonist activity of the compounds provided herein is CCR9 FLIPR/FlexStation Assay. In certain embodiments, the following protocol is used for the assay:
CCR9 FLIPR/FlexStation Assay Protocol
Calcium assay in FLIPR/FlexStation determines inhibitors of TECK induced calcium mobilization in CCR9-Flp-CHO cells that stably over express human CCR9 receptor. CCR9-Flp-CHO cells are seeded at 25,000 cells/well in a clear bottom, black wall 96-well plate (Greiner #655090) one day prior to assay. Cells are grown in a tissue culture incubator at 37° C. with 5% CO2 for 18 to 24 hours.
Wash buffer and dye loading buffer are prepared fresh each time the assay is performed. Wash buffer is prepared according to the following protocol: 20 ml 10×HBSS (Invitrogen Gibco #14065-056), 4 ml 1M HEPES (Sigma H3784), 174 ml sterile deionized water; then add 140 mg probenecid (Sigma P8761) dissolved in 2 ml 1M NaOH (Fisher S318) to solution and pH to 7.4. This wash buffer contains 1×HBSS, 20 mM HEPES and 2.5 mM probenecid. For one 96-well plate, dye loading buffer is prepared as following: 11 ml wash buffer, 44 μl Fluo-4/pluoronic acid mix (prepared from 22 μL aliquot of 2 mM Fluo-4 (Molecular Probes F14202, 1 mg/tube)+22 μl 20% pluronic F-127 (Molecular Probes P3000MP).
Cells are loaded with dye according to the protocol below:
1. Prepare wash buffer with 1×HBSS/HEPES at room temperature
2. Prepare loading buffer (keep in dark)
3. Aspirate culture media and wash with 100 μl wash buffer per well×1
4. Add 100 μl dye loading buffer to each well
5. Incubate at 37° C. for 30 minutes
6. Aspirate loading buffer
7. Wash with 100 μl wash buffer per well×3
8. Add 100 μl wash buffer per well
9. Incubate at 37° C. for 30 minutes
10. Assay plate with FLIPR or FlexStation
10 mM stock compounds in DMSO are prepared and diluted in DMSO to 1 mM. Compounds are diluted in wash buffer to make 8 point series dilutions containing same final concentration of DMSO (1%). Compounds are tested in duplicate wells for each point. Ligand rhTECK (R&D Systems 334-TK) was diluted to 6× of its EC70 with wash buffer. Appropriate amount of 6× ligand is added to each well. Data is analyzed using XLfit3 software to calculate IC50 value of antagonist activity for each compound.
CCR9 antagonist activity of exemplary compounds was determined using CCR9 FLIPR/FlexStation Assay as described in Section 4.4 and is provided in Table 1 below. The IC50 for the compounds are represented as follows: A≦100 nM; B>100-500 nM; C>500 nM.
(Calcium flux is commonly read through the fluorescence of an indicator in the cells.)
The term IC50 denotes the midpoint of a concentration-inhibition curve. For the molecule `COC/C=C/c1cc(C(C)(C)C)ccc1S(=O)(=O)Nc1ccsc1C(=O)O` [Example 55, 3-[4-tert-butyl-2-(3-methoxyprop-1-enyl)phenylsulfonamido]thiophene-2-carboxylic acid, disodium salt], the IC50 was 100 to 500 nM.

Turning to `Cc1cc(C)cc(-c2cccc(S(=O)(=O)Nc3ccsc3C(=O)O)c2)c1` [Example 42, 3-(3′,5′-dimethylbiphenyl-3-ylsulfonamido)thiophene-2-carboxylic acid, disodium salt], the IC50 was greater than 500 nM.

On to `CCc1cc(C(C)(C)C)ccc1S(=O)(=O)Nc1ccsc1C(=O)O` [Example 48, 3-(4-tert-butyl-2-ethylphenylsulfonamido)thiophene-2-carboxylic acid, disodium salt], for which the half-maximal inhibitory concentration (IC50) was no more than 100 nM.

Take `Cc1cccc(C)c1-c1cccc(S(=O)(=O)Nc2ccsc2C(=O)O)c1` [Example 41, 3-(2′,6′-dimethylbiphenyl-3-ylsulfonamido)thiophene-2-carboxylic acid, disodium salt]: the 50% inhibitory concentration (IC50) is greater than 500 nM.

As for `Cc1cc(C(C)(C)C)cc(C)c1S(=O)(=O)Nc1ccsc1C(=O)O` [Example 62, 3-(4-tert-butyl-2,6-dimethylphenylsulfonamido)thiophene-2-carboxylic acid, disodium salt], the IC50 is greater than 500 nM.

Take `O=C(O)c1sccc1NS(=O)(=O)c1ccc2ccccc2c1` [Example 17, 3-(Naphthalene-2-sulfonamido)thiophene-2-carboxylic acid, disodium salt]: the IC50 is greater than 500 nM.

`CC(C)(C)c1ccc(S(=O)(=O)Nc2c(C(=O)O)sc3ccc(F)cc23)cc1` [Example 25, 3-(4-tert-butylphenylsulfonamido)-5-fluorobenzo[b]thiophene-2-carboxylic acid, disodium salt]: the IC50 is greater than 500 nM.

In the case of `COCCCc1cc(C(C)(C)C)ccc1S(=O)(=O)Nc1ccsc1C(=O)O` [Example 59, 3-[4-tert-butyl-2-(3-methoxypropyl)phenylsulfonamido]thiophene-2-carboxylic acid, disodium salt], the IC50 was 100 to 500 nM.

With `CCC(C)c1ccc(S(=O)(=O)Nc2ccsc2C(=O)O)cc1` (stereo not shown) [Example 14, 3-(4-sec-butylphenylsulfonamido)thiophene-2-carboxylic acid, disodium salt], the IC50 is no more than 100 nM.

Regarding `COc1cc(S(=O)(=O)Nc2ccsc2C(=O)O)c(Cl)cc1F` [Example 63, 3-(2-chloro-4-fluoro-5-methoxyphenylsulfonamido)thiophene-2-carboxylic acid, disodium salt], the IC50 was greater than 500 nM.

As to `C=Cc1cc(C(C)(C)C)ccc1S(=O)(=O)Nc1ccsc1C(=O)O` [Example 61, 3-(4-tert-butyl-2-vinylphenylsulfonamido)thiophene-2-carboxylic acid, disodium salt], the IC50 is no more than 100 nM.

Consider `Cc1cc(C(C)(C)C)ccc1S(=O)(=O)Nc1ccsc1C(=O)O` [Example 13, 3-(4-tert-butyl-2-methylphenylsulfonamido)thiophene-2-carboxylic acid, disodium salt], for which the concentration for half-maximal inhibition (IC50) is no more than 100 nM.

With `CC(C)(C)c1ccc(S(=O)(=O)Nc2ccsc2C(=O)O)c(-c2cccc(Cl)c2)c1` [Example 53, 3-(5-tert-butyl-3′-chlorobiphenyl-2-ylsulfonamido)thiophene-2-carboxylic acid, disodium salt], the IC50 was greater than 500 nM.

In the case of `O=C(O)c1sccc1NS(=O)(=O)c1ccc(C2CCCCC2)cc1` [Example 34, 3-(4-cyclohexylphenylsulfonamido)thiophene-2-carboxylic acid, disodium salt], the IC50 fell in the range of 100 to 500 nM.

Consider `CC(C)(C)c1ccc(S(=O)(=O)Nc2ccsc2C(=O)O)c(O)c1` [Example 9, 3-(4-tert-butyl-2-hydroxyphenylsulfonamido)thiophene-2-carboxylic acid, trisodium salt], for which the IC50 fell in the range of 100 to 500 nM.

Take `CC(C)(C)c1ccc(S(=O)(=O)Nc2ccsc2C(=O)O)c(Cl)c1` [Example 6, 3-(4-tert-Butyl-2-chlorophenylsulfonamido)thiophene-2-carboxylic acid, disodium salt]: the IC50 was no more than 100 nM.

Turning to `Cc1ccccc1-c1cccc(S(=O)(=O)Nc2ccsc2C(=O)O)c1` [Example 22, 3-(2′-methylbiphenyl-3-ylsulfonamido)thiophene-2-carboxylic acid, disodium salt], the 50% inhibitory concentration (IC50) was greater than 500 nM.

In the case of `CCCCc1ccc(S(=O)(=O)Nc2ccsc2C(=O)O)c(Cl)c1` [Example 19, 3-(4-butyl-2-chlorophenylsulfonamido)thiophene-2-carboxylic acid, disodium salt], the IC50 was no more than 100 nM.

Turning to `O=C(O)c1sccc1NS(=O)(=O)c1c(Cl)cc(C(F)(F)F)cc1Cl` [Example 51, 3-[2,6-dichloro-4-(trifluoromethyl)phenylsulfonamido]thiophene-2-carboxylic acid, disodium salt], the IC50 is greater than 500 nM.

As for `CC(C)(C)c1ccc(S(=O)(=O)Nc2ccsc2C(=O)O)c(-c2ccccc2)c1` [Example 46, 3-(5-tert-butylbiphenyl-2-ylsulfonamido)thiophene-2-carboxylic acid, disodium salt], the IC50 is greater than 500 nM.

`CC(C)(C)c1ccc(S(=O)(=O)Nc2ccsc2C(=O)O)c(-c2cncnc2)c1` [Example 5, 3-[4-tert-butyl-2-(pyrimidin-5-yl)phenylsulfonamido]thiophene-2-carboxylic acid, disodium salt]: the IC50 was greater than 500 nM.

In the case of `CC(C)c1ccccc1-c1cccc(S(=O)(=O)Nc2ccsc2C(=O)O)c1` [Example 43, 3-(2′-isopropylbiphenyl-3-ylsulfonamido)thiophene-2-carboxylic acid, disodium salt], the IC50 was greater than 500 nM.

Consider `O=C(O)c1sccc1NS(=O)(=O)c1ccc(C(F)(F)F)cc1Br` [Example 27, 3-[2-bromo-4-(trifluoromethyl)phenylsulfonamido]thiophene-2-carboxylic acid, disodium salt], for which the IC50 is no more than 100 nM.

With `CN(C)c1ccc(-c2cc(C(C)(C)C)ccc2S(=O)(=O)Nc2ccsc2C(=O)O)cc1` [Example 4, 3-[5-tert-butyl-4′-(dimethylamino)biphenyl-2-ylsulfonamido]thiophene-2-carboxylic acid, disodium salt], the IC50 is greater than 500 nM.

In the case of `CC(C)(C)c1ccc(S(=O)(=O)Nc2ccsc2C(=O)O)c(-c2ccc(Cl)cc2)c1` [Example 2, 3-(5-tert-butyl-4′-chlorobiphenyl-2-ylsulfonamido)thiophene-2-carboxylic acid, disodium salt], the IC50 is greater than 500 nM.

Consider `CC(C)(C)c1ccc(S(=O)(=O)Nc2ccsc2C(=O)O)c(Oc2ccccc2)c1` [Example 28, 3-(4-tert-butyl-2-phenoxyphenylsulfonamido)thiophene-2-carboxylic acid, disodium salt], for which the IC50 is greater than 500 nM.

On to `CCCCCc1cc(C(C)(C)C)ccc1S(=O)(=O)Nc1ccsc1C(=O)O` [Example 58, 3-(4-tert-butyl-2-pentylphenylsulfonamido)thiophene-2-carboxylic acid, disodium salt], for which the IC50 is 100 to 500 nM.

With `CC(C)(C)c1ccc(S(=O)(=O)Nc2ccsc2C(=O)O)c(C#N)c1` [Example 10, 3-(4-tert-butyl-2-cyanophenylsulfonamido)thiophene-2-carboxylic acid, disodium salt], the IC50 was no more than 100 nM.
